Test results: patent US10752635B2, “Indazole compounds and uses thereof” (Incyte Corporation, priority 2018, dated 2020)

Target: HPK1 (Homo sapiens (Human), UniProt Q92918)
Assay: HPK1 Kinase Binding Assay
Details: active HPK1 (SignalChem M23-11G), tracer 222, LanthaScreen Eu-Anti GST antibody, one hour at 25° C.
Description: A stock solution of 1 mM test compound was prepared in DMSO. The compound plate was prepared by 3-fold and 11-point serial dilutions. 0.1 μL of the compound in DMSO was transferred from the compound plate to the white 384 well polystyrene plates. The assay buffer contained 50 mM HEPES, pH 7.5, 0.01% Tween-20, 5 mM MgCl2, 0.01% BSA, and 5 mM DTT. 5 μL of 4 nM active HPK1 (SignalChem M23-11G) prepared in the buffer was added to the plate. The enzyme concentration given was based on the given stock concentration reported by the vender. […] After one hour incubation at 25° C., the plates were read on a PHERAstar FS plate reader (BMG Labtech). Ki values were determined.

Sequence of HPK1 (Q92918 1-346 limits assumed): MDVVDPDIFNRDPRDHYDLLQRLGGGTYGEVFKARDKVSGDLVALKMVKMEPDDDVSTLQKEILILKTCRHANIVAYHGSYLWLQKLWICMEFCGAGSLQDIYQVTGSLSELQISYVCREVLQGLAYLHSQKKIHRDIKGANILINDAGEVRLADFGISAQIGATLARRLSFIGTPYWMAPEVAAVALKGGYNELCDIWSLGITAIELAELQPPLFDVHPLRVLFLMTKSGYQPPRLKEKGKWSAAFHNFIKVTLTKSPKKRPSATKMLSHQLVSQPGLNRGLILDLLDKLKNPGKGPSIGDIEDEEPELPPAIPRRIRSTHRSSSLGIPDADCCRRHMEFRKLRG

| Structure (SMILES) | Ki [nM] |
| --- | --- |
| CNC(=O)c1ccc(OC)c(-c2nccc(C(=O)Nc3cc(F)c4c(cnn4CCOC)c3N3C[C@@H](N)C[C@H]3CO)n2)c1F [Example 39, N-(4-((2S,4S)-4-Amino-2-(hydroxymethyl)pyrrolidin-1-yl)-7-fluoro-1-(2-methoxyethyl)-1H-indazol-5-yl)-2-(2-fluoro-6-methoxy-3-(methylcarbamoyl)phenyl)pyrimidine-4-carboxamide] | < 100 |
| COCCn1ncc2c(N3C[C@@H](N)C[C@H]3CO)c(NC(=O)c3ccnc(-c4c(OC)ccc(-c5cnn(C)c5)c4F)n3)cc(F)c21 [Example 40, N-(4-((2S,4S)-4-Amino-2-(hydroxymethyl)pyrrolidin-1-yl)-7-fluoro-1-(2-methoxyethyl)-1H-indazol-5-yl)-2-(2-fluoro-6-methoxy-3-(1-methyl-1H-pyrazol-4-yl)phenyl)pyrimidine-4-carboxamide] | < 100 |
| COc1cccc(F)c1-c1nccc(C(=O)Nc2cc(F)c3c(cnn3C)c2N(C)[C@@H]2CCCNC2)n1 [Example 41, (R)—N-(7-Fluoro-1-methyl-4-(methyl(piperidin-3-yl)amino)-1H-indazol-5-yl)-2-(2-fluoro-6-methoxyphenyl)pyrimidine-4-carboxamide] | < 100 |
| COCCn1ncc2c(N3C[C@@H](N)C[C@H]3CO)c(NC(=O)c3cccc(-c4c(F)cccc4OC)n3)cc(F)c21 [Example 42, N-(4-((2S,4S)-4-Amino-2-(hydroxymethyl)pyrrolidin-1-yl)-7-fluoro-1-(2-methoxyethyl)-1H-indazol-5-yl)-6-(2-fluoro-6-methoxyphenyl)picolinamide] | < 100 |

The next lines start with the values.

| Ki [nM] | Structure (SMILES) |
| --- | --- |
| < 100 | COc1cccc(F)c1-c1nccc(C(=O)Nc2cc(F)c3c(cnn3CCF)c2N2C[C@@H]3C[C@H]2CN3)n1 [Example 36, N-(4-((1S,4S)-2,5-Diazabicyclo[2.2.1]heptan-2-yl)-7-fluoro-1-(2-fluoroethyl)-1H-indazol-5-yl)-2-(2-fluoro-6-methoxyphenyl)pyrimidine-4-carboxamide] |
| < 100 | [2H]C([2H])([2H])Oc1ccc(C)c(F)c1-c1nccc(C(=O)Nc2cc(F)c3c(cnn3CCOC)c2N2C[C@@H](N)C[C@H]2CO)n1 [Example 37, N-(4-((2S,4S)-4-Amino-2-(hydroxymethyl)pyrrolidin-1-yl)-7-fluoro-1-(2-methoxyethyl)-1H-indazol-5-yl)-2-(2-fluoro-6-(methoxy-d3)-3-methylphenyl)pyrimidine-4-carboxamide] |
| < 100 | COCCn1ncc2c(N3C[C@@H](N)C[C@H]3CO)c(NC(=O)c3ccnc(-c4c(F)cc(N)cc4OC)n3)cc(F)c21 [Example 38, N-(4-((2S,4S)-4-Amino-2-(hydroxymethyl)pyrrolidin-1-yl)-7-fluoro-1-(2-methoxyethyl)-1H-indazol-5-yl)-2-(4-amino-2-fluoro-6-methoxyphenyl)pyrimidine-4-carboxamide] |
